Experimental data as given in PubChem BioAssay (NCI).
Several values for one entry are separate records, joined by “and”; a condition that tells them apart may be missing. Equal entries are not always repeated.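 Tested at 5 concentrations; 48 h exposure; 96-well plates; endpoints linearly interpolated, else capped at highest concentration. The concentration for 50% growth inhibition is given as GI50. The concentration for full growth arrest is given as TGI.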

Columns and labels:
Test in all cases: inhibition of tumour cell growth, NCI panel, 48 h
A498 renal = system: A498 renal
A549 NSCLC = system: A549 NSCLC
CAKI-1 renal = system: CAKI-1 renal
HCT-15 colon = system: HCT-15 colon
HOP-92 NSCLC = system: HOP-92 NSCLC
KM12 colon = system: KM12 colon
MALME-3M melanoma = system: MALME-3M melanoma
OVCAR-5 ovarian = system: OVCAR-5 ovarian
SF-539 CNS = system: SF-539 CNS
SK-MEL-2 melanoma = system: SK-MEL-2 melanoma

SMILES | GI50 (A498 renal) [µM] | TGI (A498 renal) [µM] | GI50 (A549 NSCLC) [µM] | TGI (A549 NSCLC) | GI50 (CAKI-1 renal) [µM] | TGI (CAKI-1 renal) | GI50 (HCT-15 colon) [µM] | TGI (HCT-15 colon) [µM] | GI50 (HOP-92 NSCLC) [µM] | TGI (HOP-92 NSCLC) [µM] | GI50 (KM12 colon) [µM] | TGI (KM12 colon) | GI50 (MALME-3M melanoma) [µM] | TGI (MALME-3M melanoma) | GI50 (OVCAR-5 ovarian) [µM] | TGI (OVCAR-5 ovarian) [µM] | GI50 (SF-539 CNS) | TGI (SF-539 CNS) [µM] | GI50 (SK-MEL-2 melanoma) [µM] | TGI (SK-MEL-2 melanoma)
CCCCCCCCc1cc(O)ccc1O | 15.3 | 36 | 28.6 | > 100 µM | 21.3 | 90 µM | 16.4 | 38 | 4.65 | 21.1 | 21.4 | 51.6 µM | 16.6 | 34.4 µM | 19.9 | 42.8 | 15.4 µM | 28.8 | 13 | 30.8 µM
COC(=O)[C@@H](C)C[C@H](Cc1ccccc1)NC(=O)c1csc([C@@H](C[C@H](C(C)C)N(C)C(=O)[C@@H](NC(=O)[C@H]2CCCCN2C)C(C(F)(F)F)C(F)(F)F)OC(C)=O)n1 | 0.0829 | > 16.7 | 0.114 | > 16.7 µM | – | – | 0.0645 | > 16.7 | 0.0185 | 1.04 | 0.0448 | 13.9 µM | 0.0437 | > 16.7 µM | 0.0643 | > 16.7 | 0.0397 µM | 0.154 | 0.0777 | > 16.7 µM
Oc1ccc(O)c(-n2cccn2)c1-n1cccn1 | – | > 100 | – | > 100 µM | – | > 100 µM | – | > 100 | – | > 100 | – | > 100 µM | – | > 100 µM | – | > 100 | – | > 100 | – | > 100 µM
C=CCO[C@H]1CC[C@@]2(C)C(CC[C@]3(C)C2CC=C2[C@@H]4[C@@H](C)C(C)CC[C@]4(C(=O)O)CCC23C)C1(C)C (some centres undefined) | – | 32.4 | – | 32.7 µM | – | 33.2 µM | – | – | – | 32.4 | – | 30.5 µM | – | 38.4 µM | – | – | – | 34.1 | – | –
CC(CC(=O)Nc1ccc(NC(=O)CC(C)N=NC(N)=O)cc1)N=NC(N)=O (centres undefined) | – | > 100 | – | > 100 µM | – | > 100 µM | – | 33.6 | – | > 100 | – | > 100 µM | – | > 100 µM | – | > 100 | – | > 100 | – | > 100 µM
C=C1C(=O)OC2(C)CCC1CC1OC1(C)CCC=C(C)CCC2O (centres undefined) | – | > 100 | – | > 100 µM | – | > 100 µM | – | > 100 | – | > 100 | – | > 100 µM | – | > 100 µM | – | > 100 | – | > 100 | – | > 100 µM
COc1ccc(/C=C/C(=O)c2ccc(Nc3nc(Nc4ccc(F)cc4)nc(Nc4ccc(F)cc4)n3)cc2)cc1 | 11.8 | 28.2 | 10.1 | 34 µM | 38.3 | > 100 µM | 14.4 | > 100 | 8.8 | 31.4 | 7.62 | 29.3 µM | 8.94 | 46.6 µM | 40.2 | > 100 | 23.2 µM | 60.1 | 14.1 | 34.6 µM
CSc1nc2ccc(C)cc2cc1/C=C1/C=C(c2ccccc2)NC1=O | – | – | 3.54 | 30.7 µM | 1.21 | 10.9 µM | 14 | > 100 | 2.85 | 13.4 | 3.13 | 82.9 µM | 3.08 | 25.9 µM | 19.3 | > 100 | 2.35 µM | 9.66 | 6.31 | 30.4 µM
O/N=C1\C(=C\c2ccc3c(c2)OCCO3)CCCC1C(NO)c1ccc2c(c1)OCCO2 (centres undefined) | – | 60 | – | > 100 µM | – | > 100 µM | – | 68.6 | – | 93.4 | – | 52 µM | – | 63.7 µM | – | > 100 | – | 26.8 | – | –
COc1ccc2c(c1)[nH]c1c3ccc(OC)cc3oc(=O)c21 | – | > 100 | – | > 100 µM | – | > 100 µM | – | > 100 | – | > 100 | – | > 100 µM | – | > 100 µM | – | > 100 | – | > 100 | – | > 100 µM
Nc1ccn(C2CC3OCC3O2)c(=O)n1 (centres undefined) | – | > 100 | – | > 100 µM | – | > 100 µM | – | > 100 | – | – | – | > 100 µM | – | – | – | > 100 | – | > 100 | – | > 100 µM
COC(=O)Nc1nc2ccc(C(=O)c3cccs3)cc2[nH]1 | 0.203 | 1.58 | 0.239 | 55.8 µM and > 100 µM | 0.232 | 56.3 µM and > 100 µM | 0.106 | – | > 100 | – | 0.0541 | 41 µM and > 100 µM | 0.296 | 43.5 µM and > 100 µM | 0.545 | > 100 | 0.0259 µM and 0.21 µM | – | 20 | 12.1 µM and > 100 µM
COC(=O)C(=O)C(C#N)c1c(Cl)cccc1Cl (centres undefined) | – | > 100 | – | > 100 µM | – | > 100 µM | – | > 100 | – | > 100 | – | – | – | > 100 µM | – | > 100 | – | > 100 | – | > 100 µM
CC1=C2C3OC(=O)C(C)C3C(O)C[C@@]2(C)C(=O)CC1 (some centres undefined) | – | > 100 | – | > 100 µM | – | > 100 µM | – | > 100 | – | > 100 | – | > 100 µM | – | > 100 µM | – | > 100 | – | > 100 | – | –
O=C1C(OC(=O)c2ccccc2)=C(c2ccc(O)cc2)C(=O)C(OC(=O)c2ccccc2)=C1c1ccc(O)cc1 | – | > 100 | – | > 100 µM | – | > 100 µM | – | > 100 | – | > 100 | – | > 100 µM | – | > 100 µM | – | > 100 | – | > 100 | – | > 100 µM
C[C@@H](C[C@H](CCO)c1ccccc1)c1ccc2ccccc2c1 | 1.16 | 2.42 | 1.71 | 3.14 µM | 1.28 | 2.54 µM | 1.5 | 2.91 | 1.39 | 2.77 | 1.4 | 2.83 µM | 1.49 | 2.89 µM | 1.57 | 3.04 | 1.68 µM | 3.11 | 1.52 | 3.02 µM
C/C(=N\Nc1n[nH]c(=S)n1N)c1c(O)cc(C)oc1=O | – | > 100 | – | > 100 µM | – | > 100 µM | – | > 100 | – | > 100 | – | > 100 µM | – | > 100 µM | – | – | – | > 100 | – | > 100 µM
